Results on 14 molecules are retold here after patent publication US20240391954A1, “MC4R AGONIST PEPTIDES” (The Regents of the University of Michigan, priority 2021, published 2024).

In one experiment the target is T1, human MC3R (Homo sapiens, UniProt P41968).
T1 construct: expressed in transfected cells; host or cells: HEK-293 cells stably expressing the GScAMP22F split-luciferase cAMP sensor (parent reporter line from Promega); MC3R clone generated in-house, G418 selection
The experiment is described as follows: split-luciferase cAMP sensor assay, agonist mode (measurement window 1), hMC3R. Format: cell-based. The settings on record: for Emax / EC50: agonist mode; for Emax: read-out: MC3R cAMP % max activation. As to the method:
(§1) The stable cell lines were grown and maintained in selection media consisting of Dulbecco's modified Eagle media (DMEM) with 4.5 g/l D-glucose, and 4 mM L-glutamine (Thermo Fisher Scientific, Waltham, MA), supplemented with 10% fetal bovine serum, 100 units/ml penicillin, 100 μg/ml streptomycin, 2.5 μg/ml amphotericin B, 200 μg/ml hygromycin B (for positive selection of the GScAMP22f luciferase reporter), and Geneticin™ (G418) 700 μg/ml (for MC3R or MC4R selection). Actual serum concentration during the assay is estimated to be about 1%. Cell line identity is routinely verified by qPCR and MC3R-and MC4R-specific oligonucleotides.
(§2) The assay for the determination of the cAMP response in live cells was described previously. […] Cells were seeded at a density of 20,000 cells per well using 384-well poly-D lysine-coated, clear bottom, and black-wall assay plates (Corning Inc. Corning, NJ). Cells were allowed to attach to the plates for 18 to 24 h after which growth media was removed and 20 μl of 4% D-luciferin (Promega) in CO2 independent, serum-free medium (Thermo Fisher Scientific) was added to each well. […] Intracellular cAMP levels were measured using an FDSS 7000EX Functional Drug Screening System (Hamamatsu Photonics, Hamamatsu, Japan) in the Center for Chemical Genomics at the Life Sciences Institute. This instrument allowed the in-line addition of test-peptides and receptor agonists while simultaneously acquiring the luminescence signal from live cells. […] A submaximal forskolin (20 μM) concentration was also included to serve as a normalization reference to account for cell number variations and differences in assay transducer efficiency between cell lines.
(§3) With this set up it was possible to evaluate the direct effect of the test-peptides on the MC3R and MC4R cell lines during measurement window 1, while the antagonist profile in the presence of EC90 α-MSH was determined on measurement window 2. […] EC50 or IC50 potency values were determined by non-linear regression by fitting the data to a sigmoid four-parameter variable slope model using the GraphPad Prism version 8.4 software package (San Diego CA).

A further experiment addresses T2, human MC4R (Homo sapiens, UniProt P32245).
T2 construct: host or cells: HEK-293 cells stably expressing the GScAMP22F split-luciferase cAMP sensor and hMC4R, G418 selection
The experiment is described as follows: split-luciferase cAMP sensor assay, agonist mode (measurement window 1), hMC4R. It is filed as cell-based. The settings on record: for Emax / EC50: agonist mode; for Emax: read-out: MC4R cAMP % max activation. As to the method:
as §1, §2, §3

Where [1] appears, read: hMC3R stable cell line, read-out: MC3R cAMP EC50.
Where [2] appears, read: HEK-293 cells stably expressing hMC4R, read-out: MC4R cAMP EC50.

Read-outs that look alike come from different tables or passages of the source. Positions of bridges follow the written chain, without caps; N, C: chain ends. Non-standard residues stand in square brackets, D forms with d. Residues, ends and D or L forms follow the SMILES beside them. dPhe(4-tBu) = CC(C)(C)c1ccc(C[C@@H](N)C(=O)O)cc1; dDip = N[C@@H](C(=O)O)C(c1ccccc1)c1ccccc1; dPhe(4-NH2) = Nc1ccc(C[C@@H](N)C(=O)O)cc1; dPhe(4-Br) = N[C@H](Cc1ccc(Br)cc1)C(=O)O; hCit = NC(=O)NCCCC[C@H](N)C(=O)O; dTic = O=C(O)[C@H]1Cc2ccccc2CN1; Cit = NC(=O)NCCC[C@H](N)C(=O)O; Nle = CCCC[C@H](N)C(=O)O

What is called EC50 is the concentration needed to bring the measured effect to its halfway point.

T1 sequence (P41968 whole entry): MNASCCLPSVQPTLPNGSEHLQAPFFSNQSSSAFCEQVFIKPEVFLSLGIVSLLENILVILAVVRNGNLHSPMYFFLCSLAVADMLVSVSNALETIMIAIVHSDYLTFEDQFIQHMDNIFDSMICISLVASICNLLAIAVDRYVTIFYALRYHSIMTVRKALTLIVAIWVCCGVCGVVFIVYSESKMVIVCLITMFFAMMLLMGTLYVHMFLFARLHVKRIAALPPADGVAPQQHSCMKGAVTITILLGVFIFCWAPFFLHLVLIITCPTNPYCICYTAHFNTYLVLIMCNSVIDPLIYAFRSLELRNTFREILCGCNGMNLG
T2 sequence (P32245 whole entry): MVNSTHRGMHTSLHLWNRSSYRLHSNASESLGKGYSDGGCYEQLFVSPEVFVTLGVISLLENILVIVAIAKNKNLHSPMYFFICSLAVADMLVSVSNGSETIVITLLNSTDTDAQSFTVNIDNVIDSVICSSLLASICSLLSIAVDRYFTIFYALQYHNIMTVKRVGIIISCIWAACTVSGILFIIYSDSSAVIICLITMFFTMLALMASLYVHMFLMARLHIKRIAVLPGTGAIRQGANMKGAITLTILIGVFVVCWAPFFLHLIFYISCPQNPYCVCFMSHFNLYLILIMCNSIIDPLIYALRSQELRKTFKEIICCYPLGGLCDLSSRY

Turning to `CCCC[C@H](NC(=O)[C@H](CCCNC(=N)N)NC(C)=O)C(=O)N[C@H]1CSSC[C@@H](C(N)=O)NC(=O)[C@H](Cc2c[nH]c3ccccc23)NC(=O)[C@H](CCCNC(=N)N)NC(=O)[C@@H](Cc2ccc(Br)cc2)NC(=O)[C@H](Cc2c[nH]cn2)NC1=O` [CTX-1229, Arg-Nle-cyclo(Cys-His-D-Phe(4-Br)-Arg-Trp-Cys)] (Ac-R[Nle]CH[dPhe(4-Br)]RWC-NH2; disulfide 3-8 (inferred)), the Emax was 16% on human MC3R (hMC3R stable cell line) and 31% on human MC4R (hMC4R stable cell line). Also, the EC50 at human MC3R (setting [1]) came to 3.5 nM. In addition, the “MC4R selectivity vs MC1R” value on human MC4R (cell printed in nM (see doubts)) stood at 18 nM.

Turning to `CCCC[C@H](NC(=O)[C@H](CCCNC(=N)N)NC(C)=O)C(=O)N[C@H]1CSSC[C@@H](C(N)=O)NC(=O)[C@H](Cc2c[nH]c3ccccc23)NC(=O)[C@H](CCCNC(=N)N)NC(=O)[C@@H](Cc2ccccc2)NC(=O)[C@H](CCCNC(N)=O)NC1=O` [CTX-1607, Arg-Nle-cyclo(Cys-Cit-D-Phe-Arg-Trp-Cys)] (Ac-R[Nle]C[Cit][dF]RWC-NH2; disulfide 3-8 (inferred)), the Emax at human MC3R (% maximal activation) was 47%.

On to `CC(=O)N[C@@H](CCCNC(=N)N)C(=O)N[C@H]1CSSC[C@@H](C(N)=O)NC(=O)[C@@H](Cc2c[nH]c3ccccc23)NC(=O)[C@H](CCCNC(=N)N)NC(=O)[C@@H](Cc2ccc(C(C)(C)C)cc2)NC(=O)[C@H](CCCNC(=N)N)NC(=O)[C@@H](C)NC1=O` [CTX-1242, Arg-cyclo(Cys-D-Ala-Arg-D-Phe(4-tBu)-Arg-D-Trp-Cys)] (Ac-RC[dA]R[dPhe(4-tBu)]R[dW]C-NH2; disulfide 2-8 (inferred)), for which the Emax at human MC3R (hMC3R stable cell line) was found to be 2.8%. At human MC4R, the “MC4R selectivity vs MC1R” value amounted to 0.64 and the “MC4R selectivity vs MC3R” value is given as 0.08. The Emax on human MC4R (hMC4R stable cell line) is 5.8%.

As to `CC(=O)N[C@@H](CCCNC(=N)N)C(=O)N[C@H]1CSSC[C@@H](C(N)=O)NC(=O)[C@@H](Cc2c[nH]c3ccccc23)NC(=O)[C@@H](CCCNC(=N)N)NC(=O)[C@@H](Cc2ccccc2)NC(=O)[C@H](CCCNC(=N)N)NC(=O)[C@@H](C)NC1=O` [CTX-1283, Arg-cyclo(Cys-D-Ala-Arg-D-Phe-D-Arg-D-Trp-Cys)] (Ac-RC[dA]R[dF][dR][dW]C-NH2; disulfide 2-8), the Emax on human MC3R (hMC3R stable cell line) is 7.8%. Further, at human MC4R, the “MC4R selectivity vs MC1R” value was 0.03 and the “MC4R selectivity vs MC3R” value was determined as 0.12. At human MC4R (hMC4R stable cell line), the Emax was 55%.

`CC(=O)N[C@@H](CCCNC(=N)N)C(=O)N[C@H]1CSSC[C@@H](C(N)=O)NC(=O)[C@@H](Cc2c[nH]c3ccccc23)NC(=O)[C@H](CCCNC(=N)N)NC(=O)[C@@H](C(c2ccccc2)c2ccccc2)NC(=O)[C@H](CCCNC(=N)N)NC(=O)[C@@H](C)NC1=O` [CTX-1280, Arg-cyclo(Cys-D-Ala-Arg-D-Dip-Arg-D-Trp-Cys)] (Ac-RC[dA]R[dDip]R[dW]C-NH2; disulfide 2-8 (inferred)): the Emax on human MC3R (hMC3R stable cell line) came to 2.6%. In addition, on human MC4R, the “MC4R selectivity vs MC1R” value came to 0.1 and the “MC4R selectivity vs MC3R” value is listed as 1.24. Also, on human MC4R (hMC4R stable cell line), the Emax was found to be 4%.

For the molecule `CC(=O)N[C@@H](CCCNC(=N)N)C(=O)N[C@H]1CSSC[C@@H](C(N)=O)NC(=O)[C@H](Cc2c[nH]c3ccccc23)NC(=O)[C@H](CCCNC(=N)N)NC(=O)[C@@H](Cc2ccc(Br)cc2)NC(=O)[C@@H]2CCCN2C(=O)[C@@H](C)NC1=O` [CTX-2204, Arg-cyclo(Cys-D-Ala-Pro-D-Phe(4-Br)-Arg-Trp-Cys)] (Ac-RC[dA]P[dPhe(4-Br)]RWC-NH2; disulfide 2-8 (inferred)), the results for the Emax on human MC3R (hMC3R stable cell line) and on human MC4R (hMC4R stable cell line) were 0.2% and 13%, respectively. Moreover, the concentration giving a half-maximal response (EC50) at human MC3R (setting [1]) was 11 nM. In addition, the “MC4R selectivity vs MC3R” value at human MC4R was determined as 0.19.

Take `C[C@H]1NC(=O)[C@@H](NC(=O)[C@H](CCCNC(=N)N)NC(=O)COCCOCCNC(=O)COCCOCCNC(=O)CNC(=O)CCc2ccc(I)cc2)CSSC[C@@H](C(N)=O)NC(=O)[C@@H](Cc2c[nH]c3ccccc23)NC(=O)[C@H](CCCNC(=N)N)NC(=O)[C@@H](Cc2ccc(Br)cc2)NC(=O)[C@H](CCCNC(=N)N)NC1=O` [CTX-1226, Arg-cyclo(Cys-D-Ala-Arg-D-Phe(4-Br)-Arg-D-Trp-Cys)]: the Emax at human MC3R (hMC3R stable cell line) was found to be 29%; on human MC4R (hMC4R stable cell line) it was 71%.

Take `CC(=O)N[C@H]1CSSC[C@@H](C(N)=O)NC(=O)[C@H](Cc2c[nH]c3ccccc23)NC(=O)[C@H](CCCNC(=N)N)NC(=O)[C@@H](Cc2ccccc2)NC(=O)[C@H](Cc2c[nH]cn2)NC(=O)[C@@H](C)NC1=O` [CTX-1207, cyclo(Cys-D-Ala-His-D-Phe-Arg-Trp-Cys)]: the Emax came to 89% on human MC3R (% maximal activation) and 96% on human MC4R (% maximal activation). The EC50 is 8.1 nM on human MC3R (MC3R cAMP EC50, HEK-293 cells stably expressing hMC3R) and 0.91 nM at human MC4R (MC4R cAMP EC50, HEK-293 cells stably expressing hMC4R). Moreover, at human MC3R (MC4R versus MC3R), the “MC4R selectivity vs MC3R” value was 8.87.

Consider `CC(=O)Nc1ccc(C[C@H]2NC(=O)[C@H](CCCNC(=N)N)NC(=O)[C@@H](C)NC(=O)[C@@H](NC(=O)[C@H](CCCNC(=N)N)NC(C)=O)CSSC[C@@H](C(N)=O)NC(=O)[C@@H](Cc3c[nH]c4ccccc34)NC(=O)[C@H](CCCNC(=N)N)NC2=O)cc1` [CTX-1245, Arg-cyclo(Cys-D-Ala-Arg-D-Phe(4-NH-Ac)-Arg-D-Trp-Cys)] (Ac-RC[dA]R[dPhe(4-NH2)](Ac)R[dW]C-NH2; disulfide 2-8), for which the Emax at human MC3R (hMC3R stable cell line) stood at 6.3%; at human MC4R (hMC4R stable cell line), 34%.

Take `CC(=O)N[C@@H](CCCNC(=N)N)C(=O)N[C@H]1CSSC[C@@H](C(N)=O)NC(=O)[C@H]2Cc3ccccc3CN2C(=O)[C@H](CCCNC(=N)N)NC(=O)[C@@H](Cc2ccc(Br)cc2)NC(=O)[C@H](CCCNC(=N)N)NC(=O)[C@@H](C)NC1=O` [CTX-1256, Arg-cyclo(Cys-D-Ala-Arg-D-Phe(4-Br)-Arg-D-Tic-Cys)] (Ac-RC[dA]R[dPhe(4-Br)]R[dTic]C-NH2; disulfide 2-8 (inferred)): the Emax on human MC3R (hMC3R stable cell line) was 17%. Moreover, on human MC4R, the “MC4R selectivity vs MC1R” value was 0.003 and the “MC4R selectivity vs MC3R” value was 0.08. The Emax at human MC4R (hMC4R stable cell line) was determined as 29%.

On to `CC(=O)N[C@@H](CCCNC(=N)N)C(=O)N[C@H]1CSSC[C@@H](C(N)=O)NC(=O)[C@H](Cc2c[nH]c3ccccc23)NC(=O)[C@H](CCCNC(=N)N)NC(=O)[C@@H](Cc2ccccc2)NC(=O)[C@H](CCCNC(=N)N)NC(=O)CNC1=O` [CTX-1293, Arg-cyclo(Cys-Gly-Arg-D-Phe-Arg-Trp-Cys)] (Ac-RCGR[dF]RWC-NH2; disulfide 2-8), for which the Emax on human MC4R (% maximal activation) was determined as 87%. Besides, the 50% effective concentration (EC50) at human MC4R (setting [2]) came out at 0.25 nM.

For the molecule `CCCC[C@H](NC(=O)[C@H](CCCNC(=N)N)NC(C)=O)C(=O)N[C@H]1CSSC[C@@H](C(N)=O)NC(=O)[C@H](Cc2c[nH]c3ccccc23)NC(=O)[C@H](CCCNC(=N)N)NC(=O)[C@@H](Cc2ccccc2)NC(=O)[C@H](CCCCNC(N)=O)NC1=O` [CTX-1618, Arg-Nle-cyclo(Cys-homo-Cit-D-Phe-Arg-Trp-Cys)] (Ac-R[Nle]C[hCit][dF]RWC-NH2; disulfide 3-8 (inferred)), the Emax at human MC4R (% maximal activation) stood at 94%. Moreover, the EC50 at human MC4R (setting [2]) amounted to 1.8 nM.

Consider `CCCC[C@H](NC(=O)[C@H](CCCNC(=N)N)NC(C)=O)C(=O)N[C@H]1CSSC[C@@H](C(N)=O)NC(=O)[C@H](Cc2ccccc2)NC(=O)[C@H](CCCNC(=N)N)NC(=O)[C@@H](Cc2ccccc2)NC(=O)[C@H](Cc2c[nH]cn2)NC1=O` [CTX-1625, Arg-Nle-cyclo(Cys-His-D-Phe-Arg-Phe-Cys)] (Ac-R[Nle]CH[dF]RFC-NH2; disulfide 3-8), for which the Emax on human MC4R (% maximal activation) was determined as 101%.

Take `CC(=O)N[C@@H](CCCNC(=N)N)C(=O)N[C@H]1CSSC[C@@H](C(N)=O)NC(=O)[C@@H](Cc2c[nH]c3ccccc23)NC(=O)[C@H](CCCNC(=N)N)NC(=O)[C@@H](Cc2ccccc2)NC(=O)[C@H](CCCNC(N)=O)NC(=O)[C@H](C)NC1=O` [CTX-1288, Arg-cyclo(Cys-Ala-Cit-D-Phe-Arg-D-Trp-Cys)] (Ac-RCA[Cit][dF]R[dW]C-NH2; disulfide 2-8): at human MC4R (% maximal activation), the Emax was determined as 87%.
